# In article PMC12881670, “Investigation into ligand selectivity and bias at the formyl peptide receptor family” (The Journal of Pharmacology and Experimental Therapeutics, 2025):
# Where a SMILES comes first, the peptide text is derived from it. Where no end group is shown, it is not given here. [ ]: non-standard residue; d: D form. The star is where a group is joined. Palmitoyl = CCCCCCCCCCCCCCCC(=O)*; 5/6‑FAM = fluorescein
# Assays:
# [1] = target: T1, Hs_FPR2 (Homo sapiens, UniProt P25090); assay: Competition binding of fluorescent WKYMVm, flow cytometry; conditions: for Max Comp (%): maximum proportion of competition with 10 nM K(5/6-FAM)-WKYMVm, mean, ND = no competition observed
# T1 construct: expressed in transfected cells
# T1 sequence (P25090 1-351): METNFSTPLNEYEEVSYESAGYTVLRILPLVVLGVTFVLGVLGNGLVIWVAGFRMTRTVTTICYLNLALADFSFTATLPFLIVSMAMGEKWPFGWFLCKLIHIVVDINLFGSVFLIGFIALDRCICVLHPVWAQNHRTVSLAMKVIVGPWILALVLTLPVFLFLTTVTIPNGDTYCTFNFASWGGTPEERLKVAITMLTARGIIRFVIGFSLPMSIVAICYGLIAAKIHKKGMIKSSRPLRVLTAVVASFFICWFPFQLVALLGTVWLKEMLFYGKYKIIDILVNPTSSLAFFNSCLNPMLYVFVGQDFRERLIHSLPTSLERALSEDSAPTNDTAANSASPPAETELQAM
# Protocol: (§1) Mean cell fluorescence was then measured for 5000 cells by flow cytometry using either a BD FACScalibur or BD Attune.
# (§2) All data were analyzed using GraphPad Prism using the nonlinear regression log(agonist) versus response (3 parameters) function for all assays, except binding, which was analyzed using the One site-FitlogIC50 function. Bias calculations were carried out following IUPHAR guidelines as described,[27]^,[37] and data were presented as the Δ Activity ratio (Log[EmaxB/EC50B])-(Log[EmaxA/EC50A]).
# [2] = target: T2, Mm_Fpr2 (Mus musculus, UniProt O88536); assay: BRET receptor-RLuc8 interaction with Venus-mGsi; assay type: cell-based
# T2 construct: expressed in transfected cells
# T2 sequence (O88536 1-351): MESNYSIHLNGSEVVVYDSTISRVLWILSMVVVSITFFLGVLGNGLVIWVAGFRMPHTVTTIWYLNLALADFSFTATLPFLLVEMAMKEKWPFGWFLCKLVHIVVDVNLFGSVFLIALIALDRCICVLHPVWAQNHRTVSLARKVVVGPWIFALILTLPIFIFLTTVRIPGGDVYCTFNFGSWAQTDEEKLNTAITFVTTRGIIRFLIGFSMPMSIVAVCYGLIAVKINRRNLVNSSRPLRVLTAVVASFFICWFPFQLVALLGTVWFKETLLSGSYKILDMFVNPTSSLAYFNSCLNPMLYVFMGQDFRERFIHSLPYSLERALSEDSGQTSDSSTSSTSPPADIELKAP
# Protocol: (§3) BRET1 assays to measure FPR interaction with Venus-mGsi and Arrestin 3-yellow fluorescent protein (YFP) were performed as previously described.[31]^,[32] Briefly, all FPRs C-terminally fused to Renilla Luciferase (donor, RLuc8) were transiently transfected along with either Venus-mGsi or YFP-Arrestin 3 (acceptor) at a ratio of 1:4. 24 hours post transfection, cells were replated into white-walled, 96-well plates and cultured for a further 24–48 hours. On the day of experimentation, growth media was aspirated and replaced with 80 μl Hanks Buffered Saline Solution and equilibrated for 30 minutes. Coelenterazine h was added to each well to a final concentration of 5 μM for 5 minutes before the addition of each compound, and the plate was incubated for a further 10 minutes at 37 °C before being read on a ClarioStar Plus, with luminescence measured at 480/20 nm (donor) and 530/20 (acceptor). The BRET ratio (acceptor/donor) was determined, and the background (untreated) subtracted to give the N-BRET value.
# as §2
# [3] = target: T1, Hs_FPR2; assay: BRET receptor-RLuc8 interaction with Venus-mGsi; assay type: cell-based
# Protocol: as §3, §2
# [4] = target: T2, Mm_Fpr2; assay: Internalization of FLAG-tagged receptors by flow cytometry; assay type: cell-based; parameters: Emax: dose or concentration left out as unconfirmed
# Protocol: (§4) Internalization of FPRs was measured by flow cytometry.[30] Briefly, cells were incubated with Alexa Fluor 657 conjugated M1 antiflag antibody (Sigma-Aldrich Cat# F3040, RRID:AB_439712) for 30 minutes at 37 °C to label surface receptors. Cells were then incubated with the indicated concentration of ligand before washing in PBS/0.04% EDTA to remove any remaining surface antibody. Remaining fluorescence was then measured using flow cytometry on either a BD FACScalibur or Attune, recording 5000 gated events. […] As a control, some samples were left untreated, and “strip only” was measured as a readout of constitutive endocytosis, and this value was subtracted from the data. Vehicle control (0.1% DMSO) had no effect on internalization of receptors.
# as §2
# [5] = target: T2, Mm_Fpr2; assay: ERK1/2 phosphorylation by Western blotting; assay type: cell-based
# Protocol: (§5) ERK phosphorylation was detected by Western blotting as previously described.[30] Briefly, HEK293 cells stably expressing FLAG-tagged FPRs were plated into 12-well culture plates until 90% confluent. On the day of the experiment, culture media was replaced with serum-free Dulbecco’s modified Eagle’s medium and incubated for 2 hours before stimulation with the indicated compounds. After 7 minutes, the media was removed and stimulation terminated by the addition of 100 μl sample buffer (0.5% SDS, Tris (pH 6.8), glycerol, at >90 °C).
# as §2
# [6] = target: T1, Hs_FPR2; assay: ERK1/2 phosphorylation by Western blotting; assay type: cell-based
# Protocol: as §5, §2
# [7] = target: T2, Mm_Fpr2; assay: Competition binding of fluorescent WKYMVm, flow cytometry; conditions: for Max Comp (%): maximum proportion of competition with 10 nM K(5/6-FAM)-WKYMVm
# Protocol: as §1, §2
# [8] = target: T2, Mm_Fpr2; assay: BRET receptor-RLuc8 interaction with Arrestin 3-YFP; assay type: cell-based
# Protocol: as §3, §2
# [9] = target: T1, Hs_FPR2; assay: as above; assay type: cell-based
# Protocol: as §3, §2
# [10] = target: T3, Mm_Fpr1 (Mus musculus, UniProt P33766); assay: BRET receptor-RLuc8 interaction with Venus-mGsi; assay type: cell-based
# T3 construct: expressed in transfected cells
# T3 sequence (P33766 1-364): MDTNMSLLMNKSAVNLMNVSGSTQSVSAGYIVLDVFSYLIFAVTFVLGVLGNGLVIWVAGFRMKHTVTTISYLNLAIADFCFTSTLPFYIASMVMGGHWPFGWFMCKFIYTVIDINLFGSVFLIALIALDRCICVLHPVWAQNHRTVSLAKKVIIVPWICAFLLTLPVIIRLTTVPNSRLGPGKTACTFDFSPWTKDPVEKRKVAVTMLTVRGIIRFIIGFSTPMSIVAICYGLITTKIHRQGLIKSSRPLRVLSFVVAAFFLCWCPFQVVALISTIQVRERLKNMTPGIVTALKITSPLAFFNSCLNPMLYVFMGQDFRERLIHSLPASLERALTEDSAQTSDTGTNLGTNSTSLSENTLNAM
# Protocol: as §3, §2
# [11] = target: T3, Mm_Fpr1; assay: Internalization of FLAG-tagged receptors by flow cytometry; assay type: cell-based; parameters: Emax: dose or concentration left out as unconfirmed
# Protocol: as §4, §2
# [12] = target: T3, Mm_Fpr1; assay: ERK1/2 phosphorylation by Western blotting; assay type: cell-based
# Protocol: as §5, §2
# [13] = target: T1, Hs_FPR2; assay: Internalization of FLAG-tagged receptors by flow cytometry; assay type: cell-based; parameters: Emax: dose or concentration left out as unconfirmed
# Protocol: Internalization of FPRs was measured by flow cytometry.[30] Briefly, cells were incubated with Alexa Fluor 657 conjugated M1 antiflag antibody (Sigma-Aldrich Cat# F3040, RRID:AB_439712) for 30 minutes at 37 °C to label surface receptors. Cells were then incubated with the indicated concentration of ligand before washing in PBS/0.04% EDTA to remove any remaining surface antibody. Remaining fluorescence was then measured using flow cytometry on either a BD FACScalibur or Attune, recording 5000 gated events. […] As a control, some samples were left untreated, and “strip only” was measured as a readout of constitutive endocytosis, and this value was subtracted from the data.
# as §2
# [14] = target: T3, Mm_Fpr1; assay: Competition binding of fluorescent WKYMVm, flow cytometry; conditions: for Max Comp (%): maximum proportion of competition with 10 nM K(5/6-FAM)-WKYMVm
# Protocol: as §1, §2
# [15] = target: T3, Mm_Fpr1; assay: BRET receptor-RLuc8 interaction with Arrestin 3-YFP; assay type: cell-based
# Protocol: as §3, §2
# [16] = tested on: formyl peptide receptor family (Hs_FPR1, Hs_FPR2, Mm_Fpr1, Mm_Fpr2); assay: Summary of main findings: receptor subtype selectivity and ligand bias across all readouts; parameters: species or system human and mouse
# Description: To determine ligand bias, a reference ligand is required, that is, “balanced” for the pathways tested.[37] […] We then used measurements of the activity ratio (Log (Emax/EC50)) for each receptor, ligand, and pathway in an attempt to observe any ligand bias (Fig. 6).
# [17] = log of EC50, phosphorylation of ERK1/2, HEK293 stable cells, mean, ND = no pERK signal detected
# [18] = mean, ND = no competition observed
# [19] = log of EC50, mGsi BRET, HEK293 transient, 10 min, mean, ND = no interaction detected
# [20] = mGsi BRET, % of response to 1 μM WKYMVm, mean, ND = no interaction detected
# [21] = phospho-ERK, % of 1 μM WKYMVm, mean, ND = no pERK signal detected
# [22] = log of IC50, competition with 10 nM K(5/6-FAM)-WKYMVm, HEK293 stable cells, on ice 90 min, mean, ND = no competition observed
# [23] = Arrestin 3 BRET, % of response to 1 μM WKYMVm, mean, ND = no interaction detected
compound,measurement,setting,value
K(5/6-FAM)-WKYMVm-NH2 (K(5/6‑FAM)WKYMV[dM]-NH2),"Kd, saturable binding","[1]; hFPR2, initial studies (not shown)",low nM range
CCCCCCCCCCCCCCCC(=O)N[C@@H](CCCCN)C(=O)N[C@H](C(=O)N[C@@H](Cc1c[nH]cn1)C(=O)N[C@@H](CCCCN)C(=O)N[C@@H](CCCCN)C(=O)NCC(=O)N[C@@H](CCSC)C(=O)N[C@H](C(=O)N[C@@H](CCCCN)C(=O)N[C@@H](CO)C(=O)O)[C@@H](C)CC)[C@@H](C)CC [F2Pal10] (Palmitoyl-KIHKKGMIKS-OH),EC50,[2],0.166 µM
same,Emax,[2],24.2%
same,EC50,[3],0.166 µM
same,Emax,[3],19.4%
same,"Gi interaction, % of that seen with WKYMVm",[3]; only detected at 1 and 10 μM,20%
same,Emax,[4],12.3%
same,Emax,[5],141%
same,EC50,[5]; [17],0.0533 µM
same,Emax,[6],80.8%
same,EC50,[6]; [17],0.0337 µM
same,IC50,[7],4.2 µM
same,Max Comp (%),[7]; [18],100%
same,IC50,[1],5.37 µM
same,Max Comp (%),[1],100%
same,EC50,[8],0.263 µM
same,Emax,[8],33.4%
same,Emax,[9],25.5%
same,EC50,[9]; read-out: Log EC50 (converted),0.282 µM
"CSCC[C@H](NC=O)C(=O)N[C@@H](CC(C)C)C(=O)N[C@@H](Cc1ccccc1)C(=O)O [fMLF, fMet-Leu-Phe]",EC50,[10],11.7 µM
same,Emax,[10],59.3%
same,EC50,[2],26.3 µM
same,Emax,[2],13.2%
same,Emax,[3],61.7%
same,EC50,[11],4.48 µM
same,Emax,[11],92.5%
same,Emax,[4],54.4%
same,Emax,[12],72.7%
same,EC50,[12]; [17],2.27 µM
same,Emax,[6],40.2%
same,Emax,[13],0.343%
same,IC50,[14],3.18 µM
same,Max Comp (%),[14]; [18],45.65%
same,Max Comp (%),[1],3.4%
same,EC50,[15],20.9 µM
same,Emax,[15],83.4%
same,EC50,[8],19.5 µM
same,Emax,[8],22.7%
CC(C)c1c(NC(=O)Nc2ccc(Cl)cc2)c(=O)n(-c2ccccc2)n1C [TC-FPR43],Log EC50 (M),[10]; [19],−7.09 M
same,Emax (%),[10]; [20],12.62%
same,Log EC50 (M),[2]; [19],−6.19 M
same,Emax (%),[2]; [20],73.16%
same,"Emax (%), internalization, Mean","[11]; % of internalization to WKYMVm (1 mM in legend, 1 μM in text), Mm_Fpr1, 30 minutes, ND denotes no internalization measured",95.95%
same,"Log EC50 (M), internalization, Mean","[11]; Log EC50, HEK293 stably expressing FLAG-Mm_Fpr1, ligand 30 minutes, ND denotes no internalization measured",−6.155 M
same,agonist-induced internalization (words),"[11]; Mm_Fpr1, 30 min, relative to 1 μM WKYMVm",partial agonists
same,"Emax (%), internalization, Mean","[4]; % of internalization to WKYMVm (1 mM in legend, 1 μM in text), Mm_Fpr2, 30 minutes",42.90%
same,"Log EC50 (M), internalization, Mean","[4]; Log EC50, HEK293 stably expressing FLAG-Mm_Fpr2, ligand 30 minutes",−7.063 M
same,agonist-induced internalization (words),"[4]; Mm_Fpr2, 30 min, relative to 1 μM WKYMVm",partial agonists
same,Log EC50 (M),[12]; [17],−7.589 M
same,Emax (%),[12]; [21],78.28%
same,Log EC50 (M),[5]; [17],−6.775 M
same,Emax (%),[5]; [21],147.8%
same,Log IC50 (M),[14]; [22],−5.926 M
same,Max Comp (%),[14]; [18],61.39%
same,Log IC50 (M),[7]; [22],−6.16 M
same,Max Comp (%),[7]; [18],29.56%
same,Emax (%),[15]; [23],39.42%
same,Emax (%),[8]; [23],73.06%
same,Log EC50 (M),"[8]; log of EC50, Arrestin 3 BRET, HEK293 transient, 10 min, mean, ND = no interaction detected",−6.20 M
same,Bias,"[16]; summary grade of ligand bias relative to WKYMVm, key not given",No
same,Notes,"[16]; summary of main findings, in words",Partial/weak only
